Assay results from patent US11491167B2, “Combination product of Bcl-2 inhibitor and chemotherapeutic agent and use thereof in the prevention and/or treatment of diseases” (ASCENTAGE PHARMA (SUZHOU) CO., LTD., priority 2018, dated 2022).
Several values for one entry are separate records, joined by “and”; a condition that tells them apart may be missing. Equal values may be shown once. Read-outs that look alike come from different tables or passages of the source.

Tests used:
[1] = system: human NCI-H146 (SCLC) mouse xenograft tumor model; settings: 5 mice per group; for RTV on day 21 after administration (mean ± standard error) / T/C (%) on day 21 after administration / RTV on day 35 after administration (mean ± standard error) / T/C (%) on day 35 after administration: Compound 6 100 mg/kg p.o. qd; for RTV on day 21 after administration (mean ± standard error) / T/C (%) on day 21 after administration: TPT 1 mg/kg p.o. d1-5/w then d1-3/w; for RTV on day 35 after administration (mean ± standard error) / T/C (%) on day 35 after administration: TPT 1 mg/kg p.o.; for CR (tumor complete regression), mice on day 21 after administration / PR (tumor partial regression), mice on day 21 after administration: Compound 6 100 mg/kg, TPT 1 mg/kg; for CR (tumor complete regression), mice on day 46 after administration / PR (tumor partial regression), mice on day 46 after administration / Tumor remission rate % on day 46 after administration: day 46, observation after discontinuation; for Tumor remission rate % on day 21 after administration / Tumor remission rate % on day 46 after administration: remission including CR, PR and SD
Procedure: A subcutaneous xenograft tumor model of human tumor immunodeficient mice was established by cell inoculation: tumor cells in logarithmic growth phase were collected, counted and resuspended in 1×PBS, and the cell suspension concentration was adjusted to 2.5-5×10^7/mL. Using a 1 mL syringe ([…]), the tumor cells were inoculated subcutaneously in the right side of immunodeficient mice, 5-10×106/0.2 mL/mouse (All animals were purchased from Beijing Vital River Laboratory Animal Technology Co., Ltd. SCXK (Beijing) 2012-0001). All animal experiments were strictly in accordance with the laboratory animal use and management practices of GenePharma Co., Ltd. and Ascentage Pharma Group Co., Ltd. The calculation of relevant parameters referred to the Chinese CFDA “Guidelines for Non-Clinical Research Techniques of Cytotoxic Antitumor Drugs”. The NCI-H146 cells used in the Institute were a gift from Professor Wang Shaomeng of the University of Michigan, USA.
Animal body weight and tumor size were measured twice a week during the experiment. The conditions and death of the animals were observed every day. Routine monitoring included the effects of tumor growth and treatment on normal animal behaviors, including activity, feeding and drinking situations, weight gain or loss, eyes, coat and other abnormalities in the experimental animals. The deaths and clinical symptoms observed during the experiment were recorded in the raw data. The entire operations of administration, measurement of mouse body weight and tumor volume were performed in a clean bench. Plasma and tumor tissues were collected, weighed and photographed after the end of the last administration according to the experimental protocol. Plasma and tumor samples were frozen and stored at −80° C.
Tumor volume (TV) was calculated as: TV=a×b2/2, in which a and b represented the length and width of the tumor as measured, respectively. The relative tumor volume (RTV) was calculated as: RTV=Vt/V1, in which V1 was the tumor volume at the time of grouping and administration, and Vt was the tumor volume measured on a day after administration. […] Change of body weight %=(measured body weight−body weight at the time of grouping)/body weight at the time of grouping×100%.
The synergistic analysis was performed by the following formula 6: synergy factor=((A/C)×(B/C))/(AB/C); A=RTV value of the group administered with A only; B=RTV value of the group administered with B only; C=RTV value of the vehicle control group; AB=RTV value of the group administered with A and B in combination (Clarke R. Issues in experimental design and endpoint analysis in the study of experimental cytotoxic agents in vivo in breast cancer and other models [J]. Breast Cancer Research & Treatment, 1997, 46(2-3): 255-278).
(1) The experimental method was as described in Section (2) of Example 1. In the experiment, the SCLC mouse xenograft tumor model derived from human NCI-H146 tumor cells was established (Gould S E et al. Translational value of mouse models in oncology drug development. Nature medicine. 2015 21, 431-439). When the tumor volume reached 100-200 mm3, randomization was performed according to tumor volume and mouse body weight, and two independent in vivo experiments were performed on the model to evaluate the anti-tumor effects of the combination of Compound 6 and the chemotherapeutic agent TPT (topotecan).
In this experiment, Compound 6 was administered at a dose of 100 mg/kg, p.o., qd; TPT was administered at a dose of 1 mg/kg, p.o., d1-5/w (i.e., a 2-day interval after 5 days of administration).

[2] = system: NCI-H146 (small cell lung cancer (SCLC)); assay: WST (CCK-8) anti-proliferation experiment, topotecan alone or combined with Compound 6; format: cell-based; settings: Homo sapiens, NCI-H146, 72 h, topotecan alone, read-out: IC50 for proliferation inhibition

## O=C(NS(=O)(=O)c1ccc(NC[C@H]2COCCO2)c([N+](=O)[O-])c1)c1ccc(N2CCN(CC3=C(c4ccc(Cl)cc4)CC4(CCC4)CC3)CC2)cc1Oc1cnc2[nH]ccc2c1 [Compound 6, (S)-N-((4-(((1,4-dioxan-2-yl)methyl)amino)-3-nitrophenyl)sulfonyl)-2-((1H-pyrrolo[2,3-b]pyridin-5-yl)oxy)-4-(4-((6-(4-chlorophenyl)spiro[3.5]non-6-en-7-yl)methyl)piperazin-1-yl)benzamide]
[1]
  RTV on day 21 after administration (mean ± standard error): 2.51 ± 0.25
  T/C (%) on day 21 after administration: 49%
  RTV on day 35 after administration (mean ± standard error): 4.89 ± 0.39
  T/C (%) on day 35 after administration: 52%
  CR (tumor complete regression), mice on day 21 after administration: 0/5CR, 0/5PR,
  PR (tumor partial regression), mice on day 21 after administration: 0/5CR, 0/5PR,
  CR (tumor complete regression), mice on day 46 after administration: 0/5CR, 0/5PR,
  PR (tumor partial regression), mice on day 46 after administration: 0/5CR, 0/5PR,
  Tumor remission rate % on day 21 after administration: 0%
  Tumor remission rate % on day 46 after administration: 0%

## CC[C@@]1(O)C(=O)OCc2c1cc1n(c2=O)Cc2cc3c(CN(C)C)c(O)ccc3nc2-1 [topotecan]
[2]; NCI-H146 (SCLC), first experiment
  IC50: 127 nM
[2]; another NCI-H146 (SCLC) experiment
  IC50: 68 nM
[1]
  RTV on day 21 after administration (mean ± standard error): 0.26 ± 0.12
  T/C (%) on day 21 after administration: 5%
  RTV on day 35 after administration (mean ± standard error): 0.77 ± 0.35
  T/C (%) on day 35 after administration: 8%
  CR (tumor complete regression), mice on day 46 after administration: 2/5
  PR (tumor partial regression), mice on day 46 after administration: 0/5
  Tumor remission rate % on day 21 after administration: 100%
  Tumor remission rate % on day 46 after administration: 40%
[1]; listed as TPT
  CR (tumor complete regression), mice on day 21 after administration: 2 and 2/5
  PR (tumor partial regression), mice on day 21 after administration: 3 and 3/5
